Measurements as given in PubChem BioAssay AID1053129 (The Scripps Research Institute Molecular Screening Center, 2014).
Activity calls are given as the source filed them. How the calls were made is not given here.

Biological target: Fibrinogen beta chain (Homo sapiens) (UniProt P02675)
Assay: Tn6 displacement potency at DD(E) complex – biochemical, fluorescence polarization, human fibrin, dose response, late-stage follow-up (AID 1053129)
Settings: FP, Tn6 cyclic peptide binding to DD(E)

Chain of Fibrinogen beta chain (Homo sapiens) (P02675 whole entry, looked up): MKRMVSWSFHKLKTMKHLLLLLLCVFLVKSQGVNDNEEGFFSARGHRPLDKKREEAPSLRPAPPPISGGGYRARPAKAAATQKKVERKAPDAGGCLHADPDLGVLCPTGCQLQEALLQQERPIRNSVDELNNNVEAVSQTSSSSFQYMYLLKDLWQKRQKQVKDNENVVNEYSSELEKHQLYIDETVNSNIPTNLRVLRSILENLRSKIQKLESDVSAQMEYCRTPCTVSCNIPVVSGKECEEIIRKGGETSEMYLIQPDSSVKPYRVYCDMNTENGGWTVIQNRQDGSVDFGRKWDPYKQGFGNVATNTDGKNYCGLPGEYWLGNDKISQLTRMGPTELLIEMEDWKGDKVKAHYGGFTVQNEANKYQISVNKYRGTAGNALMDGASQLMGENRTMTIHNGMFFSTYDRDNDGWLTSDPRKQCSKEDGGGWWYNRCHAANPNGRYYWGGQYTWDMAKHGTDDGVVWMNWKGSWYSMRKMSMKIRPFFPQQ

Row | SMILES | IC50
1 | CN1C(=O)NC(c2ccccc2[N+](=O)[O-])C2=C1CCCC2=O (stereo not given) | inactive
2 | Cc1cc2c(cc1S(=O)(=O)N1CCN(c3cccc(C)c3C)CC1)OCCN2C | > 83.3 µM (inactive)
3 | O=C(O)CCCNc1cc(N2CCN(C(=O)c3ccco3)CC2)c2noc3c2c1C(=O)c1ccccc1-3 | 6.78 µM
4 | NS(=O)(=O)c1ccc(NS(=O)(=O)c2ccc(NC(=O)c3ccc(-c4ccccc4)cc3)cc2)cc1 | 3.43 µM

Now from value to compound:

Row | IC50 | SMILES
5 | 7.39 µM | CCn1c(CSc2n[nH]c(N)n2)nc2cc(C(=O)O)ccc21
6 | > 83.3 µM (inactive) | Cc1cc2cc(CNC(=O)c3ccc(S(=O)(=O)N4CCOCC4)cc3)ccc2n1C
7 | 3.5 µM | N#CC1=C(N)Oc2ccc3ccc(O)cc3c2C1c1ccsc1 (stereo not given)
8 | > 83.3 µM (inactive) | Cc1cc2cc(CNS(=O)(=O)c3ccc4ccccc4c3)ccc2n1C
9 | > 83.3 µM (inactive) | COc1ccc2ccccc2c1C(O)c1nccn1C (stereo not given)
10 | > 83.3 µM (inactive) | Cc1cc(C)c(S(=O)(=O)NCCn2c(C)cc3ccccc32)c(C)c1
